Molecular target: T1, KCNQ2/3 channels (Homo sapiens, UniProt O43525+O43526)
T1 construct: expressed in transfected cells
Experiment: Fluorescence assay using a voltage sensitive dye (fluorimetry)
Format: cell-based
Conditions: CHO-K1 cells expressing KCNQ2/3; for Emax: CHO-K1, plateau effect relative to saturated retigabine (50 μM) = 100%, negative values = antagonistic, read-out: Fluorimetry % efficacy (retigabine = 100%); for EC50: IC50 where % efficacy is negative, read-out: Fluorimetry EC50/IC50

T1 sequence (O43526 whole entry): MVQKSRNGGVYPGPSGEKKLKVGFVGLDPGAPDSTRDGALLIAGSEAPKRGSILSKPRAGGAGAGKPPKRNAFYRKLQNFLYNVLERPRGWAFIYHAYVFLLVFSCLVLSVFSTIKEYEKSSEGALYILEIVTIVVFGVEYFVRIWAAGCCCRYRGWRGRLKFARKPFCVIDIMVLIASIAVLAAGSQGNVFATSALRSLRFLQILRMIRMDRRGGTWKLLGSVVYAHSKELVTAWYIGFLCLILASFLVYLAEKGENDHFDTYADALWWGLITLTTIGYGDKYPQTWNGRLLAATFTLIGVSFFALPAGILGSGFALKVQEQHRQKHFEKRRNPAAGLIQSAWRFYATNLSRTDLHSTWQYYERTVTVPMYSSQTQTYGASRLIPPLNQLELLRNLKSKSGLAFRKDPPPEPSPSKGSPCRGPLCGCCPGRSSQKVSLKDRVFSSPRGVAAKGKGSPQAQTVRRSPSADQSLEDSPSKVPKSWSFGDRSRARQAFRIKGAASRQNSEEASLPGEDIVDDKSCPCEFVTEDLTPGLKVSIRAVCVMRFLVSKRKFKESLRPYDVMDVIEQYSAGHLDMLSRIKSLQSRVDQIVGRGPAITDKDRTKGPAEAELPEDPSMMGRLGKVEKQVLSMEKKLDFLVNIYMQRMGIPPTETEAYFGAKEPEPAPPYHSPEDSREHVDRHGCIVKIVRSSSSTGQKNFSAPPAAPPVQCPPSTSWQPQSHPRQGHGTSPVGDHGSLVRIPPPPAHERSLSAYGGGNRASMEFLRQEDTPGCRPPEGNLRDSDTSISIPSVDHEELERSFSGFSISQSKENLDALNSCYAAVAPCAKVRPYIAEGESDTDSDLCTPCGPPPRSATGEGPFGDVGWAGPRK
T1 sequence (O43525 whole entry): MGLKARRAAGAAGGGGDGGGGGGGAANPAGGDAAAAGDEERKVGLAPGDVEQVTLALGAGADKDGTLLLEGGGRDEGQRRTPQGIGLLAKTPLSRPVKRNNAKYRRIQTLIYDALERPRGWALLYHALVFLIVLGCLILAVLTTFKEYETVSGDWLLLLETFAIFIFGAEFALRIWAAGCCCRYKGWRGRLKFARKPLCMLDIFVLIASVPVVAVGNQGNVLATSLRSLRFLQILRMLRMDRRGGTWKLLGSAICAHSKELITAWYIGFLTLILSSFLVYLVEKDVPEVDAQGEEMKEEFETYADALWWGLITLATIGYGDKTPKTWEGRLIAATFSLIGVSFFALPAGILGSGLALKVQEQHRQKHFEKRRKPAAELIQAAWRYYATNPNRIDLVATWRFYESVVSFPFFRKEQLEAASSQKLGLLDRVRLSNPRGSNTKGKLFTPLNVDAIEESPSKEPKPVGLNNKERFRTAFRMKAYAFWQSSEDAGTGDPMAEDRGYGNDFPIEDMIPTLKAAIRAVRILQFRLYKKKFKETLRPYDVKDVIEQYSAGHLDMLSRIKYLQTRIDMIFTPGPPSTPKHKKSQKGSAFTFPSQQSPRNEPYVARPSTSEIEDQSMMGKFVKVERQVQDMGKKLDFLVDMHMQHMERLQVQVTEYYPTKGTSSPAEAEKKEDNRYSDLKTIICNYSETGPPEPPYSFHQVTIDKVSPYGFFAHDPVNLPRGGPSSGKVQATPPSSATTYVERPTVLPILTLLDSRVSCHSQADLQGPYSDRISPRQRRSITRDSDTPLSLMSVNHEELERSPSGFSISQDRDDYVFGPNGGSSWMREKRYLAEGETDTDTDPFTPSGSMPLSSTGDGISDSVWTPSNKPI

Row | Emax | EC50 | Structure (SMILES)
1 | 249% | 397 nM | CCSc1nc(N2CCOCC2)cc(C)c1C(=O)NCCCC(C)(F)F [Example 308, N-(4,4-Difluoro-pentyl)-2-ethylsulfanyl-4-methyl-6-morpholin-4-yl-pyridine-3-carboxylic acid amide]
2 | 168% | 71 nM | Cc1cc(N2CCOCC2)nc(C(C)C)c1C(=O)NCc1ccc(F)cc1 [Example 309, N-[(4-Fluorophenyl)-methyl]-2-isopropyl-4-methyl-6-morpholin-4-yl-pyridine-3-carboxylic acid amide]
3 | 174% | 43 nM | Cc1cc(N2CCOCC2)nc(C(C)C)c1C(=O)NCc1ccc(F)c(F)c1 [Example 310, N-[(3,4-Difluoro-phenyl)-methyl]-2-isopropyl-4-methyl-6-morpholin-4-yl-pyridine-3-carboxylic acid amide]
4 | 146% | 45 nM | Cc1cc(N2CCOCC2)nc(C(C)C)c1C(=O)NCc1ccc(C(F)(F)F)cc1 [Example 311, 2-Isopropyl-4-methyl-6-morpholin-4-yl-N-[[4-(trifluoromethyl)-phenyl]-methyl]pyridine-3-carboxylic acid amide]
5 | 135% | 6700 nM | CCSc1nc(N2CCOCC2=O)cc(C)c1C(=O)NCc1cccc(F)c1 [Example 312, 2-Ethylsulfanyl-N-[(3-fluorophenyl)-methyl]-4-methyl-6-(3-oxo-morpholin-4-yl)-pyridine-3-carboxylic acid amide]
6 | 229% | 62 nM | CCCc1nc(N2CCOCC2)cc(C)c1C(=O)NCCCC(C)(C)C [Example 313, N-(4,4-Dimethyl-pentyl)-4-methyl-6-morpholin-4-yl-2-propyl-pyridine-3-carboxylic acid amide]
7 | 242% | 18 nM | Cc1cc(N2CCOCC2)nc(C(C)C)c1C(=O)NCCCC(C)(C)C [Example 314, N-(4,4-Dimethyl-pentyl)-2-isopropyl-4-methyl-6-morpholin-4-yl-pyridine-3-carboxylic acid amide]
8 | 187% | 314 nM | Cc1cc(N2CCOCC2)nc(C(C)C)c1C(=O)NCCCC(F)(F)F [Example 315, 2-Isopropyl-4-methyl-6-morpholin-4-yl-N-(4,4,4-trifluoro-butyl)-pyridine-3-carboxylic acid amide]
9 | 160% | 29 nM | Cc1cc(N2CCOCC2)nc(C(C)C)c1C(=O)NCc1cc(F)cc(F)c1 [Example 316, N-[(3,5-Difluoro-phenyl)-methyl]-2-isopropyl-4-methyl-6-morpholin-4-yl-pyridine-3-carboxylic acid amide]
10 | 116% | 1120 nM | Cc1cc(N2CCOCC2)nc(OC2COC2)c1C(=O)NCc1cccc(F)c1 [Example 317, N-[(3-Fluorophenyl)-methyl]-4-methyl-6-morpholin-4-yl-2-(oxetan-3-yloxy)-pyridine-3-carboxylic acid amide]
11 | 193% | 2880 nM | CCSc1nc(N2CCOCC2)cc(C)c1C(=O)NCCCC(C)(C)OC [Example 318, 2-Ethylsulfanyl-N-(4-methoxy-4-methyl-pentyl)-4-methyl-6-morpholin-4-yl-pyridine-3-carboxylic acid amide]
12 | 233% | 348 nM | CCSc1nc(N2CCOCC2)cc(C)c1C(=O)NCCCC(C)(C)F [Example 319, 2-Ethylsulfanyl-N-(4-fluoro-4-methyl-pentyl)-4-methyl-6-morpholin-4-yl-pyridine-3-carboxylic acid amide]
13 | 192% | 826 nM | CCCc1nc(N2CCOCC2)cc(C)c1C(=O)NCCCC(F)(F)F [Example 320, 4-Methyl-6-morpholin-4-yl-2-propyl-N-(4,4,4-trifluoro-butyl)-pyridine-3-carboxylic acid amide]
14 | 162% | 83 nM | CCCc1nc(N2CCOCC2)cc(C)c1C(=O)NCc1ccc(F)c(F)c1 [Example 321, N-[(3,4-Difluoro-phenyl)-methyl]-4-methyl-6-morpholin-4-yl-2-propyl-pyridine-3-carboxylic acid amide]
15 | 193% | 80 nM | CCCc1nc(N2CCOCC2)cc(C)c1C(=O)NCc1cc(F)cc(F)c1 [Example 322, N-[(3,5-Difluoro-phenyl)-methyl]-4-methyl-6-morpholin-4-yl-2-propyl-pyridine-3-carboxylic acid amide]
16 | 130% | 102 nM | CCCc1nc(N2CCOCC2)cc(C)c1C(=O)NCc1ccc(C(F)(F)F)cc1 [Example 323, 4-Methyl-6-morpholin-4-yl-2-propyl-N-[[4-(trifluoromethyl)-phenyl]-methyl]pyridine-3-carboxylic acid amide]
17 | 166% | 834 nM | CCSc1nc(N2CCOCC2)cc(C)c1C(=O)NCC(=O)CC(C)(C)C [Example 324, N-(4,4-Dimethyl-2-oxo-pentyl)-2-ethylsulfanyl-4-methyl-6-morpholin-4-yl-pyridine-3-carboxylic acid amide]
18 | 153% | 282 nM | CCSc1nc(N2CC3CCC(C2)O3)cc(C)c1C(=O)NCc1cccc(F)c1 [Example 325, 2-Ethylsulfanyl-N-[(3-fluorophenyl)-methyl]-4-methyl-6-(8-oxa-3-azabicyclo[3.2.1]octan-3-yl)-pyridine-3-carboxylic acid amide]
19 | 163% | 59 nM | CCCc1nc(N2CCOCC2)cc(C)c1C(=O)NCc1ccc(Cl)cc1 [Example 326, N-[(4-Chlorophenyl)-methyl]-4-methyl-6-morpholin-4-yl-2-propyl-pyridine-3-carboxylic acid amide]
20 | 173% | 50 nM | Cc1cc(N2CCOCC2)nc(C(C)C)c1C(=O)NCc1ccc(Cl)cc1 [Example 327, N-[(4-Chlorophenyl)-methyl]-2-isopropyl-4-methyl-6-morpholin-4-yl-pyridine-3-carboxylic acid amide]
21 | 230% | 44 nM | Cc1cc(N2CCOCC2)nc(C2CC2)c1C(=O)NCCCC(C)(C)C [Example 328, 2-Cyclopropyl-N-(4,4-dimethyl-pentyl)-4-methyl-6-morpholin-4-yl-pyridine-3-carboxylic acid amide]
22 | 170% | 763 nM | Cc1cc(N2CCOCC2)nc(C2CC2)c1C(=O)NCCCC(F)(F)F [Example 329, 2-Cyclopropyl-4-methyl-6-morpholin-4-yl-N-(4,4,4-trifluoro-butyl)-pyridine-3-carboxylic acid amide]
23 | 156% | 168 nM | Cc1cc(N2CCOCC2)nc(C2CC2)c1C(=O)NCc1cccc(F)c1 [Example 330, 2-Cyclopropyl-N-[(3-fluorophenyl)-methyl]-4-methyl-6-morpholin-4-yl-pyridine-3-carboxylic acid amide]
24 | 144% | 148 nM | Cc1cc(N2CCOCC2)nc(C2CC2)c1C(=O)NCc1ccc(F)cc1 [Example 331, 2-Cyclopropyl-N-[(4-fluorophenyl)-methyl]-4-methyl-6-morpholin-4-yl-pyridine-3-carboxylic acid amide]
25 | 166% | 109 nM | Cc1cc(N2CCOCC2)nc(C2CC2)c1C(=O)NCc1ccc(F)c(F)c1 [Example 332, 2-Cyclopropyl-N-[(3,4-difluoro-phenyl)-methyl]-4-methyl-6-morpholin-4-yl-pyridine-3-carboxylic acid amide]

From patent publication US9168259B2 (GRÜNENTHAL GMBH, priority 2010, dated 2015)
